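Test compounds were applied to cells in 96-well plates for 48 hours at 5 doses. GI50 = concentration required for 50% inhibition of growth. TGI: total growth inhibition.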
What was measured:
Assay in all cases: growth of human tumour cells (NCI), 48 h
[1] = system: IGROV1 ovarian
[2] = system: TK-10 renal
[3] = system: HOP-92 NSCLC
[4] = system: HCT-116 colon
[5] = system: HCC-2998 colon
[6] = system: NCI-H226 lung
[7] = system: SNB-75 CNS
[8] = system: PC-3 prostate
[9] = system: RPMI-8226 leukemia
[10] = system: KM12 colon
[11] = system: OVCAR-8 ovarian
[12] = system: NCI-H23 lung
[13] = system: EKVX NSCLC
[14] = system: SN12C renal
[15] = system: MALME-3M melanoma
[16] = system: U251 CNS
[17] = system: UACC-62 melanoma
[18] = system: K-562 leukemia
[19] = system: SF-295 CNS
[20] = system: HT29 colon
[21] = system: ACHN renal
[22] = system: A549 NSCLC
[23] = system: MDA-MB-435
[24] = system: LOX IMVI melanoma
[25] = system: SK-OV-3 ovarian
[26] = system: CAKI-1 renal
[27] = system: NCI/ADR-RES ovarian
[28] = system: SK-MEL-28 melanoma
[29] = system: SF-539 CNS
[30] = system: RXF 393 renal
[31] = system: HL-60(TB) leukemia
[32] = system: CCRF-CEM leukemia
[33] = system: 786-0 renal
[34] = system: OVCAR-3 ovarian
[35] = system: DU-145 prostate
[36] = system: UO-31 renal
[37] = system: HCT-15 colon
[38] = system: NCI-H460 lung
[39] = system: SNB-19 CNS
[40] = system: OVCAR-5 ovarian
[41] = system: NCI-H522 lung
[42] = system: M14 melanoma
[43] = system: UACC-257 melanoma
[44] = system: SW-620 colon
[45] = system: SK-MEL-2 melanoma
[46] = system: COLO 205 colon
[47] = system: HOP-62 NSCLC
[48] = system: SK-MEL-5 melanoma
[49] = system: T-47D breast
[50] = system: SR leukemia
[51] = system: SF-268 CNS
[52] = system: HS 578T breast
[53] = system: MDA-MB-231 breast
[54] = system: A498 renal
[55] = system: OVCAR-4 ovarian
[56] = system: BT-549 breast
[57] = system: MCF7 breast

## CCCCCCCCCCCCCCCCNC(=O)OC(C)C
[1]
  GI50: 2.27 µM
  TGI: 5 µM
[2]
  GI50: 2.09 µM
  TGI: 4.48 µM
[3]
  GI50: 3.02 µM
  TGI: 13.7 µM
[4]
  GI50: 1.96 µM
  TGI: 4.17 µM
[5]
  GI50: 2.56 µM
  TGI: 6.22 µM
[6]
  GI50: 3.56 µM
  TGI: 14.1 µM
[7]
  GI50: 5.74 µM
  TGI: 18.1 µM
[8]
  GI50: 2.45 µM
  TGI: 7.53 µM
[9]
  GI50: 5.22 µM
  TGI: 40.8 µM
[10]
  GI50: 1.83 µM
  TGI: 3.5 µM
[11]
  GI50: 3.82 µM
  TGI: 18 µM
[12]
  GI50: 3.04 µM
  TGI: 10.3 µM
[13]
  GI50: 2.35 µM
  TGI: 6.44 µM
[14]
  GI50: 4.53 µM
  TGI: 17 µM
[15]
  GI50: 2.89 µM
  TGI: 9.24 µM
[16]
  GI50: 1.96 µM
  TGI: 3.67 µM
[17]
  GI50: 6.04 µM
  TGI: 19 µM
[18]
  GI50: 2.14 µM
  TGI: 5.86 µM
[19]
  GI50: 2.11 µM
  TGI: 5.81 µM
[20]
  GI50: 1.65 µM
  TGI: 3.12 µM
[21]
  GI50: 2.16 µM
  TGI: 5.24 µM
[22]
  GI50: 1.95 µM
  TGI: 3.82 µM
[23]
  GI50: 2.55 µM
  TGI: 6.93 µM
[24]
  GI50: 1.61 µM
  TGI: 2.97 µM
[25]
  GI50: 5.7 µM
  TGI: 14.3 µM
[26]
  GI50: 2.03 µM
  TGI: 4.75 µM
[27]
  GI50: 3.34 µM
  TGI: 13.6 µM
[28]
  GI50: 13.5 µM
  TGI: 27.1 µM
[29]
  GI50: 5.15 µM
  TGI: 12.7 µM
[30]
  GI50: 8.07 µM
  TGI: 26.6 µM
[31]
  GI50: 2.01 µM
  TGI: 5.56 µM
[32]
  GI50: 2.31 µM
  TGI: 6.2 µM
[33]
  GI50: 9.38 µM
  TGI: 29.4 µM
[34]
  GI50: 1.99 µM
  TGI: 3.89 µM
[35]
  GI50: 1.81 µM
  TGI: 3.41 µM
[36]
  GI50: 1.54 µM
  TGI: 3.38 µM
[37]
  GI50: 2.35 µM
  TGI: 6.79 µM
[38]
  GI50: 1.11 µM
  TGI: 2.46 µM
[39]
  GI50: 5.48 µM
  TGI: 16.3 µM
[40]
  GI50: 2.81 µM
  TGI: 8.39 µM
[41]
  GI50: 2.01 µM
  TGI: 4.62 µM
[42]
  GI50: 3.5 µM
  TGI: 14.4 µM
[43]
  GI50: 13.2 µM
  TGI: 28.8 µM
[44]
  GI50: 1.46 µM
  TGI: 2.87 µM
[45]
  GI50: 2.43 µM
  TGI: 6.15 µM
[46]
  GI50: 1.95 µM
  TGI: 3.61 µM
[47]
  GI50: 5.11 µM
  TGI: 11.2 µM
[48]
  GI50: 12.3 µM
  TGI: 27.8 µM
[49]
  GI50: 3.79 µM
  TGI: 12.6 µM
[50]
  GI50: 1.56 µM
  TGI: 5.01 µM
[51]
  GI50: 2.73 µM
  TGI: 8 µM
[52]
  GI50: 2.19 µM
  TGI: 16.5 µM
[53]
  GI50: 2.37 µM
  TGI: 5.41 µM
[54]
  GI50: 0.37 µM
  TGI: 5.95 µM
[55]
  GI50: 2.01 µM
  TGI: 4.37 µM
[56]
  GI50: 21.9 µM
  TGI: 55.9 µM
[57]
  GI50: 1.88 µM
  TGI: 3.53 µM
